Experimental data: patent US20030114360A1 (priority 2000, published 2003)

How the values were obtained:
[1] = target: PrP cell surface receptor on COS-7 cells (ATCC CRL-1651)
[2] = target: PrP cell surface receptor on H4 cells (ATCC HTB-148)
[3] = test system: PrP-AP; format: binding

Copaxone
IC50 [1]: 500 nM
IC50 [2]: 500 nM

KKRPKPGGWNT [N-term 11 mer]
inhibition of PrP-AP binding to cell surfaces by peptide [3]: inhibited

GGSRYPGQGSP [control 11 mer]
inhibition of PrP-AP binding to cell surfaces by peptide [3]: Only the peptide with the PrP amino terminal sequence inhibited

OC[C@@H](O)[C@@H](O)[C@H](O)[C@H](O)CO [mannitol]
inhibition of PrP-AP binding to cell surfaces [3]: does not participate in the inhibition of binding
